Series [1] can be described thus: pH of the original solution of GA. Format: physicochemical.
The target in series [2] is T1, α-La (Bos taurus, UniProt P00711).
T1 construct: purchased Davisco Foods International
T1 sequence (P00711 20-142): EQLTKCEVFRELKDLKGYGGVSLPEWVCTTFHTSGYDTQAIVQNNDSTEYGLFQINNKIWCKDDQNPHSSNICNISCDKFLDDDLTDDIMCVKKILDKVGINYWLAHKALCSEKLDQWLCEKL
The series is described as follows: Binding isotherm: number of GA molecules bound per α-La molecule (endogenous fluorescence). The settings on record: α-La 20 µmol/L, 25 °C. As for the experimental part:
Determination of the number of molecules of glycyrrhizic acid binding α-La: under 25 degree Celsius (°C) and fixed concentration of α-La of 20 µmol/L, adjusting the concentration of GA (0 - 15.0 mM) to obtain a α-La-GA mixed solution; calculating an average value (v) of each protein molecule bound to surfactant molecules by measuring the endogenous fluorescence (λex = 295 nm) of α-La-GA mixed solution, and obtaining a binding isotherm from the change of the average number with the total concentration of GA as shown in FIG. 2.
Binding isotherm allows a good understanding of protein-glycyrrhizic acid binding behavior, with the average value (v) of glycyrrhizic acid molecules bound per protein molecule as the response value being used as a criterion for determination. […] In the region II of 0.02<CGA<1.00 mM, the average value v of bound GA molecules increases slowly but obviously, where the maximum fluorescence intensity is decreased. In the region III between 1.00 mM and 15.00 mM, a large number of synergistic binding appears with the formation of protein aggregates. Moreover, the values v under different pH conditions vary greatly in regions II and III (see Table 1). Acidic conditions can induce more GA molecules to bind with α-La in the process of non-cooperative binding and cooperative binding, which may be due to the fact that the structure of α-La is unfolded under acidic conditions, prompting more hydrophobic groups to be exposed, thus making α-La binding with more GA molecules.

The target of series [3] is T1, α-La. The series is described as follows: Aggregation of GA in the presence of α-La (ANS fluorescence, CAC breakpoint). Format: physicochemical. The settings on record: in the presence of α-La and ANS. As for the experimental part: Measurement of aggregation: adding 8-Anilino-1-naphthalenesulfonic acid (ANS) solution (80 microliter (µL), 8 mmol/L) into 4 milliliter (mL) of the mixed solutions prepared in Embodiment 1 and Embodiment 2, respectively, and standing the solutions in the dark for 15 min; measuring the aggregation with a 1 centimeter (cm) light path cuvette, setting the excitation/emission slit of the instrument to 5.0/2.5 nano-meter (nm), the excitation wavelength at 355 nm, and recording the emission spectrum as 360 - 600 nm; recording the value of the most fluorescent intensity.
The threshold concentration required to form small molecular aggregates on the surface of protein is called critical aggregation concentration (CAC), which is usually lower than critical micelle concentration (CMC). […] For example, the minimum value of fluorescence of α-La is recorded under neutral condition and 1.0 mM GA, while the minimum value is observed after adding 2.0 mM GA in acid solution; this is because the pH of the original solution of GA is 4.3, while the carboxylate of GA is protonated and its electrostatic charge is shielded when the pH is 2.5, which leads to the decrease of repulsion between GA molecules and promotes self-assembly of molecules to form aggregates; GA is easier to polymerize under acidic conditions when the concentration of α-La is constant, that is, it has a smaller CAC.

The text below walks through data of patent publication US20230148626A1, “PROTEIN-BASED FORMING AGENT, PREPARATION METHOD AND APPLICATION THEREOF” (NORTHEAST AGRICULTURAL UNIVERSITY, priority 2021, published 2023).

On to `CC1(C)[C@@H](O[C@H]2O[C@H](C(=O)O)[C@@H](O)[C@H](O)[C@H]2O[C@@H]2O[C@H](C(=O)O)[C@@H](O)[C@H](O)[C@H]2O)CC[C@]2(C)[C@H]3C(=O)C=C4[C@@H]5C[C@@](C)(C(=O)O)CC[C@]5(C)CC[C@@]4(C)[C@]3(C)CC[C@@H]12` [GA, glycyrrhizic acid], for which, in series [1], the “pH of the original solution of GA” value turned out to be 4.3. Besides, the “average value v of GA molecules bound per protein molecule” value on α-La [2] (pH 2.5, characteristic area I, CGA 0 - 0.20) is on record as 0 - 8.96; at α-La [2] (pH 2.5, characteristic area II, CGA 0.20 - 1.00), 8.96 - 48.95; on α-La [2] (pH 7.0, characteristic area I, CGA 0 - 0.20), 0 - 5.22; on α-La [2] (pH 7.0, characteristic area II, CGA 0.20-1.00), 5.22 - 39.49; at α-La [2] (pH 7.0, characteristic area III, CGA 1.00-15.00), 39.49 - 998.19. Besides, the “GA concentration at minimum value of fluorescence of α-La (breakpoint, CAC)” value on α-La [3] (acid solution) is on record as 2.0 mM; on α-La [3] (neutral condition), 1.0 mM.
